From US20090311716A1, “METHODS TO TREAT OR PREVENT HORMONE-RESISTANT PROSTATE CANCER USING siRNA [sequence] FOR PROTOCADHERIN-PC, OR OTHER INHIBITORS OF PROTOCADHERIN-PC EXPRESSION OR ACTIVITY” (THE TRUSTEES OF COLUMBIA UNIVERSITY IN THE CITY OF NEW YORK, priority 2005, published 2009)
“Also recorded” adds a separate entry of the source. Peptide text beside a SMILES is read from it. * marks the point of attachment. Cbz = O=C(OCc1ccccc1)*

Tests used:
Format in all cases: cell-based, human
hAR protein = assay: Western blot of hAR protein in Wnt-activated LNCaP cells; conditions: β-catenin or PCDH-PC transfected or 7 days androgen-free LNCaP
Source text: FIGS. 43A-43C. […] FIG. 43A. […] FIG. 43B.
(§1) FIGS. 44A-44B. Suppression of MDM2 expression or direct Akt activity relieves Wnt-mediated suppression of hAR protein expression. FIG. 44A. […] (middle). Actin control (bottom). FIG. 44B. […] Actin control (bottom).
(§2) Cell lines, plasmids and siRNAs. LNCaP, CWR22rv-1, PC-3 and DU145 cells were obtained from ATCC and were passaged in normal (for LNCaP, RPMI 1640 with 10% fetal calf serum and supplements) or androgen-free maintained as previously described (Yang et al., 2005). A defective adenovirus that expresses Wnt-1 protein (Ad-Wnt-1) and control, Lac Z expressing adenovirus (Ad-lac Z) were previously described (Young et al., 1998). These viruses were applied at 20 particles/cell in low serum (2%) medium for 1 h. Expression plasmids containing mutated (stabilized) human β-catenin (Tetsu and McCormick, 1999), dominant negative TCF-4 (Chen et al., 2001) or PCDH-PC cDNA were transfected into cells as previously described (Example 1; Yang et al., 2005). Small interfering (si) RNAs targeting β-catenin or lamin were purchased from Dharmacon Inc. siRNA targeting human MDM2 was purchased from Qiagen Inc (Valencia, Calif.). siRNAs were transfected into cells. Proteasome inhibitors MG132 and lactacystin were purchased from Sigma Chemical Co. (St Louis, Mo.) and were used at 5 (MG 132) or 10 (lactacystin) […] for 12 h prior to cell harvesting. PI3-kinase inhibitor LY294002 (Sigma Chemical Co.) and Akt Inhibitor IV (compound 5233705, EMD Biosciences Inc., San Diego, Calif.) (Kau et al., 2003) were used at 4 and 50 mM concentrations, respectively, for 12 h prior to harvesting cells.
(§3) Preparation of cell extracts and western blots. Cells were harvested and protein extracts prepared, quantified and used to prepare Western blots as previously described (Example 1; Yang et al., 2005). […] Recombinant Wnt-1 protein (HA-tagged) was detected with anti-HA antibody (Clontech Inc., Mountain View, Calif.). Antibody binding to the Western blot was detected as previously described (Yang et al., 2005). […]

MDM2 = assay: Western blot of phosphorylated MDM2 in Wnt-activated LNCaP cells; conditions: β-catenin transfected or 7 days androgen-free LNCaP
Source text: as §1
(§4) FIG. 45. Proteasome inhibitors block the suppression of MDM2 phosphorylation and suppress degradation of PP2A B subunit protein in Wnt-activated LNCaP cells. […] There was no change in the PP2A catalytic C subunit levels in Wnt-activated or proteasome-inhibitor treated cells (bottom).
as §2, with “PI3-kinase inhibitor LY294002 (Sigma Chemical Co.) and Akt Inhibitor IV (compound 5233705, EMD Biosciences Inc., San Diego, Calif.) (Kau et al., 2003) were used at 4 and 50 mM concentrations, respectively, for 12 h prior to harvesting cells.” left out
as §3

PP2A B subunit = assay: Western blot of PP2A B subunit in Wnt-activated LNCaP cells
Source text: as §4
Preparation of cell extracts and western blots. Cells were harvested and protein extracts prepared, quantified and used to prepare Western blots as previously described (Example 1; Yang et al., 2005). Western blots were probed with mouse monoclonal antibodies against human Akt protein, phospho-MDM2 (ser 166), hAR (Santa Cruz Biotechnology Inc., Santa Cruz, Calif.), actin (Sigma Chemical Co., St Louis, Mo.) or with rabbit polyclonal antibodies against phospho-Akt (ser 473) or human MDM2 (Cell Signaling Technology, Beverly, Mass.). Recombinant Wnt-1 protein (HA-tagged) was detected with anti-HA antibody (Clontech Inc., Mountain View, Calif.). Antibody binding to the Western blot was detected as previously described (Yang et al., 2005). Densitometry of films was carried out using a Kodak Image Station 420.

PCDH-PC mRNA = assay: RT-PCR of PCDH-PC mRNA in LNCaP cells; conditions: 1 mM db-cAMP, 50 ng/ml IL-6 or 5 nM NS-398, 5 days
Source text: (§5) FIGS. 3A-3D. […] FIG. 3A. […] FIG. 3B. […] FIG. 3C. […] FIG. 3D.
FIG. 5A. […] FIG. 5B. […] FIG. 5C.

NSE and chromogranin-A = assay: Western blot of NE biomarkers in LNCaP cells treated with NE transdifferentiation inducers; conditions: 1 mM db-cAMP, 50 ng/ml IL-6 or 5 nM NS-398, 5 days
Source text: as §5

PCDH-PC = assay: Western blot of myc-tagged PCDH-PC in LNCaP cells co-transfected with pPCDH-PC-myc and siRNA; conditions: siRNA 100 nM co-transfected with pPCDH-PC-myc, 48 hrs
Source text: FIGS. 4A-4B. siRNAs against PCDH-PC suppress PCDH-PC expression and NE transdifferentiation of LNCaP cells. FIG. 4A. LNCaP cells were transfected with the pPCDH-PC-myc expression vector and were co-transfected with siRNA against human lamin or siRNAs 181, 190 or 208 designed to suppress PCDH-PC expression. A Western blot made against protein extracts from these cells were probed with anti-myc (Top Panel) to identify expression of the 110 kd PCDH myc-tagged protein, anti-β-actin (Middle Panel) or anti-human E-cadherin (Bottom Panel). FIG. 4B. A repeated experiment that includes control LNCaP cells (no transfection) or pCMV-PCDH-myc transfected LNCaP cells co-transfected with siRNAs against lamin or against PCDH-PC (181, 190 or 208). The Western blot was probed for NSE expression (Top Panel) or for β-actin expression (Bottom Panel).
Expression Vectors, Transfection Protocols and Luciferase/β-Glactosidase Assays. PCDH-PC cDNA was inserted into the mammalian expression vectors pcDNA3 (Invitrogen Life Technologies, Inc., Carlsbad, Calif.) or into pCMV-myc (BD Biosciences, Clontech, Inc., Palo Alto, Calif.) so that the PCDH-PC product generated from this vector (pPCDH-PC-myc) has a C-terminal myc tag. An expression vector containing cDNA encoding a mutated (stabilized) form of human β-catenin (Tetsu and McCormick, 1999) was used. A dominant-negative Tcf expression vector used was previously described (Chen et al., 2001). The Tcf-sensitive reporter vector, pTOP and a CMV-promoted β-galactosidase expression vector were obtained from Upstate Biotechnology, Inc. Transfections used for protein or RNA extractions were done in 35 cm^2 dishes with cells plated at 50% density 12-16 hrs prior. […] Luciferase activity in cell extracts was measured using the Luciferase Assay System of Promega, Inc. (Madison, Wis.). β-galactosidase activity was also measured in the same cell extracts using the β-galactosidase Enzyme Assay System of Promega, Inc. All experiments involving luciferase reporter vectors were done in triplicate for each point. […]

CC(C)C[C@@H](C=O)NC(=O)[C@H](CC(C)C)NC(=O)[C@H](CC(C)C)NC(=O)OCc1ccccc1 [MG132] (Cbz-Leu-Leu-Leu-aldehyde)
Wnt-mediated suppression of hAR protein expression (hAR protein): restored to levels commensurate with elevated hAR mRNA levels | Wnt-mediated upregulation of MDM2 phosphorylation (MDM2): blocked | loss of PP2A regulatory subunit B (PP2A B subunit): blocked

CS(=O)(=O)Nc1ccc([N+](=O)[O-])cc1OC1CCCCC1 [NS-398]
expression of PCDH-PC mRNA (PCDH-PC mRNA): highly upregulated | expression of NSE and chromogranin-A proteins (NSE and chromogranin-A): highly upregulated

CC[n+]1c(/C=C/N(C)c2ccccc2)n(-c2ccccc2)c2ccc(-c3nc4ccccc4s3)cc21.[I-] [compound 5233705]
Wnt-mediated suppression of hAR protein expression (hAR protein): significant elevation; also recorded: relieves | Wnt-mediated upregulation of MDM2 phosphorylation (MDM2): able to suppress; also recorded: relieves

CC(=O)N[C@@H](CSC(=O)[C@]1([C@@H](O)C(C)C)NC(=O)[C@H](C)[C@@H]1O)C(=O)O [lactacystin]
Wnt-mediated suppression of hAR protein expression (hAR protein): restored to levels commensurate with elevated hAR mRNA levels | Wnt-mediated upregulation of MDM2 phosphorylation (MDM2): blocked | loss of PP2A regulatory subunit B (PP2A B subunit): blocked

interleukin-6 [IL-6]
expression of PCDH-PC mRNA (PCDH-PC mRNA): highly upregulated | expression of NSE and chromogranin-A proteins (NSE and chromogranin-A): highly upregulated

siRNA #190: 21 bp siRNA targeting PCDH-PC mRNA position 3098-3117, 19 bp core with UU overhangs (SEQ ID NO:6) (AAACATGCAGAATTCTGAATG; listed as DNA, further chemistry not given here)
expression of myc-tagged PCDH-PC polypeptide (PCDH-PC): suppressive effects

siRNA #208: 21 bp siRNA targeting PCDH-PC mRNA position 3345-3364, 19 bp core with UU overhangs (SEQ ID NO:7) (AAGAAACTAAGGCAGATGATG; listed as DNA, further chemistry not given here)
expression of myc-tagged PCDH-PC polypeptide (PCDH-PC): suppressive effects
